How the values were obtained:
Type in all cases: in vivo
[1] = test system: barnyardgrass (Echinochloa crus-qalli L.); test: Test Example 21: pot, soil treatment, metobromuron + prometryn; settings: soil treatment, pot, 21st day after treatment, read-out: Growth inhibition rate of barnyardgrass (%) Measured value
From the text: (§1) When the herbicidal activity in a case where two active ingredients are combined, is larger than the simple sum of the respective herbicidal activities of the two active ingredients (the expected activity), it is called a synergistic effect. The activity expected by the combination of two active ingredients can be calculated as follows (Colby S. R., “Weed”, vol. 15, p. 20-22, 1967). E=α+β−(α×β[…]) where α: growth inhibition rate when treated with x (g/ha) of herbicide X, • β: growth inhibition rate when treated with y (g/ha) of herbicide Y, • E: growth inhibition rate expected when treated with x (g/ha) of herbicide X and y (g/ha) of herbicide Y.
(§2) On the 19th day after treatment, the state of growth of barnyardgrass was visually observed and evaluated in accordance with the following standards. The growth inhibition rate (%) [measured value] and the growth inhibition rate (%) [calculated value] calculated by the Colby's method, are shown in Table 2.
(§3) Growth inhibition rate (%)=inhibition rate) (%) of 0 (equivalent to the non-treated area) to 100 (complete kill)
(§4) Soil was put into a 1/300,000 ha pot, and seeds of barnyardgrass (Echinochloa crus-qalli L.) were sown. On the day after seeding, predetermined amounts of SC containing metobromuron as active ingredient (same as in Test Example 1) and WP containing prometryn as active ingredient (trade name: Gesagard 50, manufactured by Nippon Kayaku Co., Ltd.) were diluted with water corresponding to 1,000 L per hectare and applied for soil treatment.
(§5) On the 21st day after treatment, the state of growth of barnyardgrass was visually observed and evaluated in the same manner as in Test Example 1.

[2] = test system: large crabgrass (Diqitaria sanquinalis L.); test: Test Example 22: pot, soil treatment, metobromuron + prometryn; settings: Digitaria sanguinalis, soil treatment, pot, 21st day after treatment, read-out: Growth inhibition rate of large crabgrass (%) Measured value
From the text: as §1, §2, §3, §4, §5
The test was carried out in the same manner as in Test Example 21 except that barnyardgrass (Echinochloa crus-qalli L.) was changed to large crabgrass (Diqitaria sanquinalis L.), to obtain the results as shown in Table 23.

[3] = test system: velvetleaf (Abutilon theophrasti MEDIC.); test: Test Example 13: pot, soil treatment, metobromuron + pyroxasulfone; settings: soil treatment, pot, 12th day after treatment, read-out: Growth inhibition rate of velvetleaf (%) Measured value
From the text: as §1, §2, §3
(§6) Soil was put into a 1/300,000 ha pot, and seeds of velvetleaf (Abutilon theophrasti MEDIC.) were sown. Prior to germination of velvetleaf, predetermined amounts of SC containing metobromuron as active ingredient (same as in Test Example 1) and WG containing pyroxasulfone as active ingredient (trade name: Sakura 850 WG, manufactured by Bayer CropScience) were diluted with water corresponding to 1,000 L per hectare and applied for soil treatment.
On the 12th day after treatment, the state of growth of velvetleaf was visually observed and evaluated in the same manner as in Test Example 1.

[4] = test system: black nightshade (Solanum nigrum L.); test: Test Example 14: pot, soil treatment, metobromuron + pyroxasulfone; settings: soil treatment, pot, 12th day after treatment, read-out: Growth inhibition rate of black nightshade (%) Measured value
From the text: as §1, §2, §3
as §6, with “black nightshade (Solanum nigrum L.)” for “velvetleaf (Abutilon theophrasti MEDIC.)”, “black nightshade,” for “velvetleaf,”, “(same as in Test Example 13)” for “(trade name: Sakura 850 WG, manufactured by Bayer CropScience)”
On the 12th day after treatment, the state of growth of black nightshade was visually observed and evaluated in the same manner as in Test Example 1.

[5] = test system: black nightshade (Solanum nigrum L.); test: Test Example 27: pot, soil treatment, metobromuron + flufenacet; settings: soil treatment, pot, 21st day after treatment, read-out: Growth inhibition rate of black nightshade (%) Measured value
From the text: as §1, §2, §3
as §4, with “black nightshade (Solanum nigrum” for “barnyardgrass (Echinochloa crus-qalli”, “EC” for “WP”, “prosulfocarb” for “prometryn”, “BOXER NYUZAI,” for “Gesagard 50,”, “Syngenta)” for “Nippon Kayaku Co., Ltd.)”
(§7) On the 21st day after treatment, the state of growth of black nightshade was visually observed and evaluated in the same manner as in Test Example 1.
The test was carried out in the same manner as in Test Example 26 except that EC containing prosulfocarb as active ingredient was changed to SC containing flufenacet as active ingredient (trade name: Cadou, manufactured by Bayer CropScience), to obtain the results as shown in Table 28.

[6] = test system: large crabgrass (Digitaria sanquinalis L.); test: Test Example 29: pot, soil treatment, metobromuron + indanofan; settings: soil treatment, pot, 20th day after treatment, read-out: Growth inhibition rate of large crabgrass (%) Measured value
From the text: as §1, §2, §3
Soil was put into a 1/300,000 ha pot, and seeds of large crabgrass (Digitaria sanquinalis L.) were sown. On the day after seeding, predetermined amounts of SC containing metobromuron as active ingredient (same as in Test Example 1) and WP containing indanofan as active ingredient were diluted with water corresponding to 1,000 L per hectare and applied for soil treatment.
On the 20th day after treatment, the state of growth of large crabgrass was visually observed and evaluated in the same manner as in Test Example 1.

[7] = test system: black nightshade (Solanum nigrum L.); test: Test Example 26: pot, soil treatment, metobromuron + prosulfocarb; settings: soil treatment, pot, 21st day after treatment, read-out: Growth inhibition rate of black nightshade (%) Measured value
From the text: as §1, §2, §3
as §4, with “black nightshade (Solanum nigrum” for “barnyardgrass (Echinochloa crus-qalli”, “EC” for “WP”, “prosulfocarb” for “prometryn”, “BOXER NYUZAI,” for “Gesagard 50,”, “Syngenta)” for “Nippon Kayaku Co., Ltd.)”
as §7

[8] = test system: common lambsquarters (Chenopodium album L.); test: Test Example 30: pot, soil treatment, metobromuron + thiobencarb; settings: soil treatment, pot, 20th day after treatment, read-out: Growth inhibition rate of common lambsquarters (%) Measured value
From the text: as §1, §2, §3
as §4, with “common lambsquarters (Chenopodium album” for “barnyardgrass (Echinochloa crus-qalli”, “EC” for “WP”, “thiobencarb” for “prometryn”, “Saturn NYUZAI,” for “Gesagard 50,”, “KUMIAI CHEMICAL INDUSTRY” for “Nippon Kayaku”
(§8) On the 20th day after treatment, the state of growth of common lambsquarters was visually observed and evaluated in the same manner as in Test Example 1.

[9] = test system: black nightshade (Solanum nigrum L.); test: Test Example 31: pot, soil treatment, metobromuron + thiobencarb; settings: soil treatment, pot, 20th day after treatment, read-out: Growth inhibition rate of black nightshade (%) Measured value
From the text: as §1, §2, §3
as §4, with “common lambsquarters (Chenopodium album” for “barnyardgrass (Echinochloa crus-qalli”, “EC” for “WP”, “thiobencarb” for “prometryn”, “Saturn NYUZAI,” for “Gesagard 50,”, “KUMIAI CHEMICAL INDUSTRY” for “Nippon Kayaku”
as §8
The test was carried out in the same manner as in Test Example 30 except that common lambsquarters (Chenopodium album L.) was changed to black nightshade (Solanum nigrum L.), to obtain the results as shown in Table 32.

CSc1nc(NC(C)C)nc(NC(C)C)n1 [Prometryn, N^2,N^4-diisopropyl-6-methylthio-1,3,5-triazine-2,4-diamine]
inhibition at 300 g/ha ([1]; 300 g/ha): 15% | inhibition at 400 g/ha ([1]; 400 g/ha): 38% | inhibition at 300 g/ha ([2]; 300 g/ha): 62% | inhibition at 400 g/ha ([2]; 400 g/ha): 76%

Cn1nc(C(F)(F)F)c(CS(=O)(=O)C2=NOC(C)(C)C2)c1OC(F)F [Pyroxasulfone, 3-[5-(difluoromethoxy)-1-methyl-3-(trifluoromethyl)pyrazol-4-ylmethylsulfonyl]-4,5-dihydro-5,5-dimethyl-1,2-oxazole]
inhibition at 25 g/ha ([3]; 25 g/ha): 25% | inhibition at 33 g/ha ([3]; 33 g/ha): 28% | inhibition at 50 g/ha ([3]; 50 g/ha): 38% | inhibition at 25 g/ha ([4]; 25 g/ha): 50% | inhibition at 33 g/ha ([4]; 33 g/ha): 64% | inhibition at 50 g/ha ([4]; 50 g/ha): 73%

CC(C)N(C(=O)COc1nnc(C(F)(F)F)s1)c1ccc(F)cc1 [Flufenacet, 4′-fluoro-N-isopropyl-2-[5-(trifluoromethyl)-1,3,4-thiadiazol-2-yloxy] acetanilide]
inhibition at 83.35 g/ha ([5]; 83.35 g/ha): 30% | inhibition at 125 g/ha ([5]; 125 g/ha): 25% | inhibition at 187.5 g/ha ([5]; 187.5 g/ha): 40%

CCC1(CC2(c3cccc(Cl)c3)CO2)C(=O)c2ccccc2C1=O (racemic) [Indanofan, (RS)-2-[2-(3-chlorophenyl)-2,3-epoxypropyl]-2-ethyl indane-1,3-dione]
inhibition at 25 g/ha ([6]; 25 g/ha): 25% | inhibition at 37.5 g/ha ([6]; 37.5 g/ha): 25% | inhibition at 56.3 g/ha ([6]; 56.3 g/ha): 28%

CCCN(CCC)C(=O)SCc1ccccc1 [Prosulfocarb, S-benzyl dipropyl(thiocarbamate)]
inhibition at 653.4 g/ha ([7]; 653.4 g/ha): 50% | inhibition at 980 g/ha ([7]; 980 g/ha): 50% | inhibition at 1470 g/ha ([7]; 1470 g/ha): 50%

CCN(CC)C(=O)SCc1ccc(Cl)cc1 [Thiobencarb, S-4-chlorobenzyl diethyl(thiocarbamate)]
inhibition at 296.3 g/ha ([8]; 296.3 g/ha): 0% | inhibition at 444.4 g/ha ([8]; 444.4 g/ha): 0% | inhibition at 666.7 g/ha ([8]; 666.7 g/ha): 0% | inhibition at 296.3 g/ha ([9]; 296.3 g/ha): 25% | inhibition at 444.4 g/ha ([9]; 444.4 g/ha): 23% | inhibition at 666.7 g/ha ([9]; 666.7 g/ha): 20%

From US9993001B2, “Herbicidal composition” (ISHIHARA SANGYO KAISHA, LTD., priority 2014, dated 2018)
